Measurements published in patent publication US4416877A, “Anti-atherosclerotic pharmaceutical compositions containing diphosphonate compounds” (priority 1979, dated 1983).
Read-outs that look alike come from different tables or passages of the source.

What was measured:
lipid metabolism = assay: Effects of diphosphonates on lipid metabolism in normal rats (serum lipids, α/β cholesterol); assay type: in vivo, male Wistar rats; settings: for change in vivo at 200 mg/kg/day: Rattus norvegicus, po, normal rats (N), 200 mg/kg/day p.o.
Description: Effects of diphosphonates of formula (I) on lipid metabolism in normal rats Groups of 4 to 5 normal male Wistar rats, weighing about 200 g were treated with diphosphonates (200 mg/kg/day) p.o. for 4 to 21 days. Water soluble compounds were given in solution in 24 mM bicarbonate buffer. Lipid soluble compounds were given in corn oil. The rats were weighed, sacrificed by decapitation (under light ether anesthesia) after overnight fasting. Blood was collected and serum used for analysis. The following blood parameters reflecting changes in lipid metabolism are reported: […]
free fatty acids measured according to W. G. Duncombe (Clin. Acta 9, 122, 1964) triglycerides enzymatic method (Boehringer Mannheim Kit 126 012) phospholipids: molybdate/vanadate reaction (Boehringer Mannheim Kit 124 974) β-lipoprotein cholesterol was measured after heparin, CaCl2 precipitation according to M. Burstein et al. (La Presse Medicale 43, 974, 1958) and to D. Watson (Clin. Chim. Acta 5, 637, 1960).
In above Table IV, results are given as % control values. Except for serum calcium, values which differ from control values by less than 15% are considered as non significant (NS).
Serum free fatty acids, triglycerides and phospholipids were measured in normal rats (N) and rats previously fed a cholesterol diet for 10 days (C.F.) Serum α/β cholesterol, total lipids and cholesterol of liver and aorta were determined in normal rats (N) and rats which had previously been fed on high cholesterol diet (C.F.)

Oral LD50 toxicity = assay type: in vivo
Text: Following the extensive pharmacological screening of these compounds, using over 2000 animals, those showing the most potential were then subjected to toxicity testing for further selection relative to their activity/toxicity risk profiles
By way of LD50 (Lethal Dose 50) the methyl diphosphonates were discovered to have a significant lower degree of toxicity. […] This represents a significant six fold difference in toxicity.

[1] = system: alpha/beta cholesterol ratio; assay: Comparison of clofibrate, gemfibrozil and fenofibrate to compound 16: alpha/beta cholesterol ratio in normal Wistar rats; assay type: in vivo; settings: 100 mg/kg for 10 days, n = 5
Description: It should be noted that these diphosphonate compounds are different and novel in comparison to the classical hypolipidemic compounds as illustrated in Table V. The diphosphonate ester used for comparison was the only one to increase the alpha/beta cholesterol ratio in control rats.
Each drug was administered at 100 mg/kg for 10 days

lipoprotein cholesterol = assay: Lipoprotein cholesterol changes in normal rats treated for 90 days; assay type: in vivo, male and female rats
Description: Treating male and female rats with 40, 400 and 800 mg/kg of compound 16 per day for 90 days produced a sustained dose response augmentation in serum high density lipoprotein cholesterol (HDL-C or α-cholesterol) as high as 220% above controls at high dose level (Table VI).
*Plasma was pooled from 5 animals of each group and analyzed.

liver cholesterol = assay: Liver cholesterol clearing activity in cholesterol pre-fed rabbits; assay type: in vivo; settings: 4 months; for Liver Cholesterol / Liver Cholesterol Free/Ester Ratio / Liver Phospholipids / Liver Total Lipids / Liver/Body Weight % Change: n = 5
blood pressure = assay: Cardiovascular changes (blood pressure, heart rate) produced by one dose in a Cynomolgus monkey; assay type: in vivo; settings: for Blood pressure / Heart Rate: 250 mg/kg p.o.
plasma lipoproteins = assay: Plasma lipoproteins in Cynomolgus monkeys fed simultaneously a high cholesterol diet during 60 days; assay type: in vivo; settings: for HDL Chol. / α/β Chol. ratio: n = 7
Description: (§1) | Dose: 25 mg d.i.d. per day

renin = assay: Renin activity in Cynomolgus monkeys fed simultaneously a high cholesterol diet; assay type: in vivo; settings: for Renin Activity: n = 7
Description: as §1

[2] = 30 days on high cholesterol diet
[3] = 60 days on high cholesterol diet
[4] = simultaneous cholesterol-compound 16 treatment

Structure (SMILES): COP(=O)(OC)OC(c1ccc(Cl)cc1)P(=O)(OC)OC (stereo not drawn) [Compound 16, Dimethyl α(dimethoxyphosphinyl) p-chlorobenzyl phosphate]
- change in vivo at 200 mg/kg/day (lipid metabolism; read-out: Serum Chol. α/β (% control values)): 121%
- change in vivo at 200 mg/kg/day (lipid metabolism; read-out: Serum Free Fatty Acids (% control values)): -50%
- change in vivo at 200 mg/kg/day (lipid metabolism; read-out: Serum Phospholipids (% control values)): 26%
- change in vivo at 200 mg/kg/day (lipid metabolism; read-out: Serum Triglycerides (% control values)): < 15%
- increased HDL lipids, especially HDL cholesterol (lipid metabolism; normal rats): observed most dramatically
- increase in serum phospholipid (lipid metabolism; rats): found to increase
- α-cholesterol/β-cholesterol ratio / lipoprotein cholesterol (lipid metabolism; rats): highly significant activity
- LD50 (Oral LD50 toxicity; in vivo, oral): 3040 mg/kg
- difference in toxicity (LD50, compound 16 vs compound 24) (Oral LD50 toxicity; oral LD50): six fold
- alpha/beta Cholesterol Ratio [1]: 9.69 ± 0.76
- α-chol (lipoprotein cholesterol; 40 mg/kg, female): 54 mg/dL
- α/β ratio (lipoprotein cholesterol; 40 mg/kg, female): 6.0
- β-chol (lipoprotein cholesterol; 40 mg/kg, female): 9.0 mg/dL
- α-chol (lipoprotein cholesterol; 40 mg/kg, male): 63 mg/dL
- α/β ratio (lipoprotein cholesterol; 40 mg/kg, male): 7.6
- β-chol (lipoprotein cholesterol; 40 mg/kg, male): 8.3 mg/dL
- α-chol (lipoprotein cholesterol; 400 mg/kg, female): 68 mg/dL
- α/β ratio (lipoprotein cholesterol; 400 mg/kg, female): 11.5
- β-chol (lipoprotein cholesterol; 400 mg/kg, female): 5.9 mg/dL
- α-chol (lipoprotein cholesterol; 400 mg/kg, male): 78 mg/dL
- α/β ratio (lipoprotein cholesterol; 400 mg/kg, male): 11.5
- β-chol (lipoprotein cholesterol; 400 mg/kg, male): 7.6 mg/dL
- α-chol (lipoprotein cholesterol; 800 mg/kg, female): 117 mg/dL
- α/β ratio (lipoprotein cholesterol; 800 mg/kg, female): 11.3
- β-chol (lipoprotein cholesterol; 800 mg/kg, female): 10.3 mg/dL
- α-chol (lipoprotein cholesterol; 800 mg/kg, male): 128 mg/dL
- α/β ratio (lipoprotein cholesterol; 800 mg/kg, male): 10.7
- β-chol (lipoprotein cholesterol; 800 mg/kg, male): 11.9 mg/dL
- augmentation in serum HDL-C (α-cholesterol) above controls (lipoprotein cholesterol; high dose level (800 mg/kg)): ≤ 220%
- Liver Cholesterol (liver cholesterol; 100 mg/kg/day): 3.1 ± 1.2 mg/g
- Liver Cholesterol Free/Ester Ratio (liver cholesterol; 100 mg/kg/day): 2.23 ± 0.27
- Liver Phospholipids (liver cholesterol; 100 mg/kg/day): 20.7 ± 2.7 mg/g
- Liver Total Lipids (liver cholesterol; 100 mg/kg/day): 20.5 ± 3.4 mg/g
- Liver/Body Weight % Change (liver cholesterol; 100 mg/kg/day): +8%
- Liver Cholesterol (liver cholesterol; 200 mg/kg/day): 3.9 ± 1.4 mg/g
- Liver Cholesterol Free/Ester Ratio (liver cholesterol; 200 mg/kg/day): 2.24 ± 0.46
- Liver Phospholipids (liver cholesterol; 200 mg/kg/day): 26.3 ± 3.1 mg/g
- Liver Total Lipids (liver cholesterol; 200 mg/kg/day): 25.9 ± 2.9 mg/g
- Liver/Body Weight % Change (liver cholesterol; 200 mg/kg/day): +12%
- pre-established cholesterol deposits, liver (liver cholesterol; cholesterol pre-fed rabbits): effectively decreased the pre-established cholesterol deposits
- decrease of blood pressure (blood pressure; 250 mg/kg oral, six hours period): at least 40%
- Blood pressure (blood pressure; +1h): 65 mmHg
- Heart Rate (blood pressure; +1h): 195 beat/min.
- Blood pressure (blood pressure; +2h): 70 mmHg
- Blood pressure (blood pressure; +3h): 100 mmHg
- Heart Rate (blood pressure; +3h): 195 beat/min.
- Blood pressure (blood pressure; +5h): 95 mmHg
- Heart Rate (blood pressure; +5h): 210 beat/min.
- Blood pressure (blood pressure; +6h): 105 mmHg
- Heart Rate (blood pressure; +6h): 210 beat/min.
- HDL Chol. (plasma lipoproteins; [2]): 49 ± 4 mg/100 ml
- α/β Chol. ratio (plasma lipoproteins; [2]): 0.22 ± 0.05
- HDL Chol. (plasma lipoproteins; [3]): 39 ± 6 mg/100 ml
- α/β Chol. ratio (plasma lipoproteins; [3]): 0.22 ± 0.05
- HDL-C values and α/β ratios (plasma lipoproteins; simultaneous cholesterol feeding, 60 days): increase HDL-C values and the α/β ratios
- Renin Activity (renin; [2]): 0.8 ± 0.5 ng AI /ml/h
- Renin Activity (renin; [3]): 1.1 ± 0.2 ng AI /ml/h
- renin inhibition (renin; [4]): essentially completely inhibited
- renin inhibition, fold (renin; [4]): 20 fold
